Reference: US4837227A, “Aminoalkylthiodibenzoxepins and pharmaceutical use” (Hoechst-Roussel Pharmaceuticals, Inc., priority 1985, dated 1989)
Counter-ions that a name gives are not always drawn. Like-named read-outs stand apart in the source and are kept apart here. Blank lines part the entries; values can stand above or below the compound they belong to.

How the values were obtained:
[1] = tested on: supramaximal electro shock in mice; experiment: protection from supramaximal electro shock in mice (anticonvulsant); assay type: in vivo; details: Mus musculus, ip, intraperitoneal dose, read-out: ED50, approximately 50% protective from the effect of supramaximal electro shock
Source text: Compounds of the present invention are still further useful as anticonvulsant agents for mammals, as determined by the method of Woodbury, L. A. and Davenport, V. D., in Arch. Int. Pharmacodynam, Vol. 92. (1952) at pages 97 to 107. Thus, for instance, the following intraperitoneal doses at which an approximately 50% protective (ED50) from the effect of supramaximal electro shock in mice are: […]

[2] = tested on: tetrabenazine-induced depression (ptosis) in mice; experiment: inhibition of tetrabenazine-induced depression (ptosis) in mice; assay type: in vivo; details: Mus musculus, read-out: ED50, 50% inhibition of the ptosis of the tetrabenazine-induced depression
Source text: Thus, for instance, the intraperitoneal dose at which the following compounds effect a 50% inhibition of the ptosis of the tetrabenazine-induced depression (ED50) in mice are: […]

[3] = tested on: climbing behavior induced by apomorphine in mice; experiment: apomorphine-induced climbing mice assay (neuroleptic activity); assay type: in vivo, CD-1 male mice; details: intraperitoneally 30 minutes prior to apomorphine 1.5 mg/kg s.c.
Experimental: Central Nervous System Depressant (Neuroleptic) Activity Climbing Mice Assay
The subject CD-1 male mice (23-27 grams) were group-housed under standard laboratory conditions. The mice were individually placed in wire mesh stick cages (4"×4"×10") and were allowed one hour for adaptation and exploration of the new environment. Then apomorphine was injected subcutaneously at 1.5 mg/kg, a dose causing climbing in all subjects for 30 minutes. Compounds to be tested for neuroleptic activity were injected intraperitoneally 30 minutes prior to the apomorphine challenge at a screening dose of 10 mg/kg.
For evaluation of climbing, 3 readings were taken at 10, 20 and 30 minutes after apomorphine administration according to the following scale:
Mice consistently climbing before the injection of apomorphine were discarded.
With full-developed apomorphine climbing, the animals were hanging onto the cage walls, rather motionless, over longer periods of time. By contrast, climbs due to mere motor stimulation usually only lasted a few seconds.
The climbing scores were individually totaled (maximal score: 6 per mouse over 3 readings) and the total score of the control group (vehicle intraperitineally -- apomorphine subcutaneously) was set to 100%.

[4] = tested on: tail flick in mice; experiment: modified D'Amour-Smith analgesia (tail flick) assay; assay type: in vivo, male mice (Charles River: CD-1); details: generally s.c.
Source text: Analgesic Activity Modified D'Amour-Smith Assay (Tail Flick)
Male mice (Charles River: CD-1) from 18-30 grams were used as test subjects. The mouse tails were individually placed on a "Vee" block and, subsequently, a painful stimulus was produced by an intense light beam (Emdie Instrument Co., Louisa, VA). The subject quickly responds to the noxious stimuli by flicking its tail. The reaction time, the interval between stimulus onset and response, was automatically measured in 1/10-second increments. Prior to drug administration, two control readings of reaction time were measured for each subject with approximately 15 minutes separating the tests. Subjects were discarded if their reaction times in these control tests varied by more than one second or if their inclusion in the study group caused the spread of reaction time to exceed three seconds.
The mean response time (x) and the standard deviation (SD) of the values were then calculated for each set of control scores. The formula presented below was used to calculate cut-off values (C.O.) for each set of control scores and the average of these C.O. values was used to determine evidence of analgesic activity in subsequent drug testing.
The C.O. value was actually a determination of a reaction time which exceeds the mean by two standard deviations. Any reaction time, in subsequent drug tests, which was greater than the C.O. value, therefore exceeds 95% of a normal Gaussian distribution and was called a "positive response" indicative of analgesic activity. Latency changes were calculated by subtracting the tail flick latency of the average control times from the latency after treatment for each mouse.
Compounds were tested in treatment groups of ten subjects and drugs, prepared in distilled water, were generally administered subcutaneously (s.c.) in volumes equivalent to 10 cc/kg. The initial testing was usually in the form of a time response at intervals of 15, 30, 45 and 60 minutes after dosing. If analgesic activity was still increasing at 60 minutes, then two additional groups were tested at 90 minute and 120 minute post dosing.
A time response indicated the period of greatest analgesic effect after dosing. Percent analgesic activity was calculated in the following manner: [formula] Grp.=Group Veh.=Vehicle
The ED50 was determined at the peak time of drug activity. A minimum of three dose groups were employed. Drugs were administered in a randomized manner. ED50 's were calculated using Litchfield-Wilcoxon (LITWL on PDP II) computer analysis.

[5] = tested on: phenyl-p-quinone writhing in mice; experiment: phenyl-p-quinone writhing assay in mice (analgesia); assay type: in vivo; details: Mus musculus, sc, subcutaneous dose, read-out: ED50, approximately 50% inhibition of writhing
Source text: Compounds of the invention are further useful as analgesic agents due to their ability to alleviate pain in mammals. […] Exptl. Biol Med., 95 729 (1957)]. Thus for instance, the subcutaneous dose effecting an approximately 50% inhibition of writhing (ED50) in mice produced in this assay is as follows: […]

[6] = stability study, gas chromatographic assay (acid stability); assay type: physicochemical
Experimental: Gas chromatographic conditions were established under which 2-fluoro-11-[β-(dimethylamino)ethoxy]dibenz[b,f]oxepin (as the hydrobromide or hydrochloride salts), 2-fluoro-11-[β-(dimethylamino)ethylthio]dibenz[b,f]oxepin (as the hydrobromide salt) and 10,11-dihydro-10-oxodibenz[b,f]oxepin were separated:
Column-Glass 2m×2mm ID packed with 3% OV-225 on 80/100 supelcoport
Temperature: Isothermal at 220° C.
Flow Rate: He at 45 ml/min
Instrument: Perkin-Elmer 3920B
Solutions of 2-fluoro-11-[β-(dimethylamino)ethoxy]dibenz[b,f]oxepin and 2-fluoro-11-[β-(dimethylamino)ethylthio]dibenz[b,f]oxepin were prepared in water at a concentration of 200 mg/100 ml. Portions of these stock aqueous solutions were used in each of the following experiments. All aqueous samples were prepared for gas chromotographic (GC) injection by first adding sodium carbonate solution to adjust the pH to 9 and then extracting with ethyl acetate. The ethyl acetate layer was separated and 2.0μ of it were injected.
II. Acidification of 2.0 ml of 2-fluoro-11-[β-(dimethylamino)ethoxy]dibenz[b,f]oxepin stock solution with 0.2 ml of concentrated hydrochloric acid and standing at ambient temperature produced increases in the levels of 10,11-dihydro-10-oxodibenz[b,f]oxepin beyond the 0.2% level initially contaminating the sample of 2-fluoro-11-[β-(dimethylamino)ethoxy]dibenz[b,f]oxepin.
III. Simultaneous experiments were performed using 2.0 ml of each stock solution of […] and 2-fluoro-11-[β-(dimethylamino)ethylthio]dibenz[b,f]oxepin in individual test tubes. Acidification of each solution with 0.2 ml of concentrated hydrochloric acid and side by side warming (not reflux) for 2 minutes (electric heat gun) produced a visible change.

[7] = M. Protvia, et al. Il Farmaco XXI, 98 (1966); cited from earlier work
[8] = 0.2 ml concentrated hydrochloric acid, warming (not reflux) for 2 minutes

Structure (SMILES): CN(C)CCSC1Cc2ccccc2Oc2ccc(Cl)cc21.O=C(O)C(=O)O (stereo not drawn) [2-chloro-10,11-dihydro-11-[β-(dimethylamino)-ethylthio]-dibenz[b,f]oxepin oxalate]
- ED50 [1]: 19.4 mg/kg
- ED50 ([2]; ip, intraperitoneal dose): 3.5 mg/kg

Structure (SMILES): CN(C)CCSC1=Cc2ccccc2Oc2ccc(Cl)cc21 [2-chloro-11-[β-(dimethylamino)ethylthio]dibenz[b,f]oxepin]
- Activity (% Inhibition of Climbing) ([3]; 10 mg/kg): 5%
- Analgesic Activity (%) ([4]; dose 25 mg/kg): 20%

Structure (SMILES): CN(C)CCSC1Cc2ccccc2Oc2ccc(F)cc21.O=C(O)C(=O)O (stereo not drawn) [2-fluoro-10,11-dihydro-11-[β-(dimethylamino)ethylthio]dibenz[b,f]oxepin oxalate]
- ED50 [1]: 9 mg/kg
- ED50 ([2]; oral dose (footnote *)): 7.6 mg/kg
- ED50 [5]: 1.9 mg/kg

- visible change of the acidified solution on warming [6, 8]: became white and cloudy
- decomposition on reflux after addition of concentrated hydrochloric acid ([6]; 25 ml stock + 2.5 ml concentrated hydrochloric acid, further reflux 10 mins, to 10,11-dihydro-10-oxodibenz[b,f]oxepin): complete decomposition
- decomposition on reflux of aqueous stock solution ([6]; water, 200 mg/100 ml, reflux, 45 minutes): no apparent decomposition
- degraded at 2 min ([6]; water, concentrated hcl, 0.2 ml concentrated hydrochloric acid, warming (not reflux) for 2 minutes, read-out: decomposed to 10,11-dihydro-10-oxodibenz[b,f]oxepin by GC analysis): 87.2%
- degraded at 2 min ([6]; water, concentrated hcl, 2 min, ambient temperature, 2.0 ml stock + 0.2 ml concentrated hydrochloric acid, product 10,11-dihydro-10-oxodibenz[b,f]oxepin, read-out: % Increase in decomposition product): 0.35%
- degraded at 1 h ([6]; water, concentrated hcl, 60 min, ambient temperature, 2.0 ml stock + 0.2 ml concentrated hydrochloric acid, product 10,11-dihydro-10-oxodibenz[b,f]oxepin, read-out: % Increase in decomposition product): 2.16%
- degraded at 140 min ([6]; water, concentrated hcl, 140 min, ambient temperature, 2.0 ml stock + 0.2 ml concentrated hydrochloric acid, product 10,11-dihydro-10-oxodibenz[b,f]oxepin, read-out: % Increase in decomposition product): 3%
Structure (SMILES): CN(C)CCOC1=Cc2ccccc2Oc2ccc(F)cc21 [2-fluoro-11-[β-(dimethylamino)ethoxy]dibenz[b,f]oxepin]

Structure (SMILES): Br.CN(C)CCSC1=Cc2ccccc2Oc2ccc(F)cc21 [2-fluoro-11-[β-(dimethylamino)ethylthio]dibenz[b,f]oxepin hydrobromide]
- ED50 [1]: 9.2 mg/kg
- ED50 ([2]; ip, intraperitoneal dose): 4.3 mg/kg

Structure (SMILES): CN(C)CCSC1=Cc2ccccc2Oc2ccc(F)cc21 [2-fluoro-11-[β-(dimethylamino)ethylthio]dibenz[b,f]oxepin]
- decomposition by GC analysis (in words) [6, 8]: did not decompose
- visible change of the acidified solution on warming [6, 8]: remained clear and colorless
- Activity (% Inhibition of Climbing) ([3]; 10 mg/kg): 10%
- Analgesic Activity (%) ([4]; dose 23.9 mg/kg): 50%

Structure (SMILES): CNCCSC1=Cc2ccccc2Oc2ccc(F)cc21.O=C(O)/C=C\C(=O)O [2-fluoro-11-[β-(methylamino)ethylthio]dibenz[b,f]oxepin maleate]
- ED50 [1]: 9.9 mg/kg
- ED50 ([2]; ip, intraperitoneal dose): 0.3 mg/kg
- ED50 [5]: 2.3 mg/kg

Structure (SMILES): CNCCSC1=Cc2ccccc2Oc2ccc(F)cc21 [2-fluoro-11-[β-(methylamino)ethylthio]dibenz[b,f]oxepin]
- Analgesic Activity (%) ([4]; dose 11.3 mg/kg): 50%

Structure (SMILES): CN(C)CCSC1Cc2ccccc2Oc2ccccc21 (stereo not drawn) [10,11-dihydro-10-[β-(dimethylamino)ethylthio[dibenz[b,f]oxepin oxalate]
- ED50 [1]: 7.7 mg/kg
- ED50 ([2]; ip, intraperitoneal dose): 7 mg/kg

Structure (SMILES): CNCCSC1=Cc2ccccc2Oc2ccccc21.O=C(O)C(=O)O [10-[β(methylamino)ethylthio]dibenz[b,f]oxepin oxalate]
- ED50 [1]: 21 mg/kg
- ED50 ([2]; ip, intraperitoneal dose): 3.4 mg/kg
- ED50 [5]: 2.3 mg/kg

Structure (SMILES): CN(C)CCSC1=Cc2ccccc2Oc2ccccc21 [10-[β-(dimethylamino)ethylthio]dibenz[b,f]oxepin]
- Activity (% Inhibition of Climbing) ([3]; 15 mg/kg): 20%
- Analgesic Activity (%) ([4]; dose 25 mg/kg): 30%

Structure (SMILES): CNCCSC1=Cc2ccccc2Oc2ccccc21 [10-[β-(methylamino)ethylthio]dibenz[b,f]oxepin]
- Analgesic Activity (%) ([4]; dose 11.6 mg/kg): 50%

Structure (SMILES): CSc1ccc2c(c1)C(SCCN(C)C)=Cc1ccccc1O2 [11-[β-(dimethylamino)ethylthio]-2-(methylthio)dibenz[b,f]oxepin]
- Activity (% Inhibition of Climbing) ([3]; 10 mg/kg): 18%
- Analgesic Activity (%) ([4]; dose 14.1 mg/kg): 50%

Structure (SMILES): CN(C)CCOC1Cc2ccccc2Sc2ccc(Cl)cc21 (centres unmarked) [Amethoclothepine]
- central depressant activity (in words) [7]: central depressant activity
